Laboratory results as given in PubChem BioAssay (NCI).
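Exposure lasted 48 hours, with cells grown in 96-well plates and compounds tested at five concentrations. GI50 is the concentration that inhibits growth by half. TGI marks complete inhibition of growth.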

Legend:
Assay in all cases: NCI anticancer screen, dose series, 48 h
OVCAR-8 ovarian = system: OVCAR-8 ovarian
MDA-MB-231 breast = system: MDA-MB-231 breast
MOLT-4 leukemia = system: MOLT-4 leukemia
HS 578T breast = system: HS 578T breast
M14 melanoma = system: M14 melanoma
LOX IMVI melanoma = system: LOX IMVI melanoma
OVCAR-5 ovarian = system: OVCAR-5 ovarian
HL-60(TB) leukemia = system: HL-60(TB) leukemia
HCT-116 colon = system: HCT-116 colon
SNB-75 CNS = system: SNB-75 CNS

Compound	GI50 (OVCAR-8 ovarian)	TGI (OVCAR-8 ovarian)	GI50 (MDA-MB-231 breast)	TGI (MDA-MB-231 breast)	GI50 (MOLT-4 leukemia)	TGI (MOLT-4 leukemia)	GI50 (HS 578T breast)	TGI (HS 578T breast)	GI50 (M14 melanoma)	TGI (M14 melanoma)	GI50 (LOX IMVI melanoma)	TGI (LOX IMVI melanoma)	GI50 (OVCAR-5 ovarian)	TGI (OVCAR-5 ovarian)	GI50 (HL-60(TB) leukemia)	TGI (HL-60(TB) leukemia)	GI50 (HCT-116 colon)	TGI (HCT-116 colon)	GI50 (SNB-75 CNS)	TGI (SNB-75 CNS)
N#CC1=C(/N=C/c2ccccc2)Oc2c(ccc3ccccc23)C1c1ccccc1 (stereo unspecified)	0.708 µM	> 100 µM	1.31 µM	20.5 µM	0.935 µM	> 100 µM	0.377 µM	> 100 µM	0.484 µM	> 100 µM	0.559 µM	> 100 µM	2.13 µM	> 100 µM	0.295 µM	0.991 µM	0.427 µM	> 47.8 µM	–	–
CC(=O)NCc1cccc(C#Cc2cncnc2Nc2ccc(OCc3cccc(F)c3)c(Cl)c2)c1	9.58 µM	> 25 µM	> 25 µM	> 25 µM	7.42 µM	> 25 µM	> 22.4 µM	> 25 µM	14.1 µM	> 25 µM	9.44 µM	> 25 µM	9.13 µM	> 25 µM	7.76 µM	> 22.5 µM	9.05 µM	> 25 µM	> 21 µM	> 25 µM
COc1ccc(-c2nc(/C=C3\SC(=NCc4ccccc4)NC3=O)c3ccccn23)cc1	2.04 µM	8.13 µM	1.01 µM	3.84 µM	2.72 µM	> 100 µM	1.37 µM	4.32 µM	1.12 µM	2.42 µM	0.964 µM	2.72 µM	1.5 µM	2.45 µM	2.1 µM	5.11 µM	0.276 µM	1.06 µM	1.51 µM	3.2 µM
NS(=O)(=O)c1ccc(-c2cc3ccncc3cc2OCc2ccccc2)cc1	8.19 µM	> 25 µM	14.6 µM	> 25 µM	> 13.6 µM	> 25 µM	7.04 µM	> 25 µM	> 25 µM	> 25 µM	> 22.6 µM	> 25 µM	> 25 µM	> 25 µM	6.43 µM	> 19.3 µM	> 14.8 µM	> 25 µM	5.27 µM	> 25 µM
COC1=C(OC)C(=O)C(SC/C=C(\C)CCCC(C)CCCC(C)CCCC(C)C)=CC1=O (stereo unspecified)	0.456 µM	> 100 µM	1.92 µM	8.78 µM	1.41 µM	> 100 µM	0.709 µM	> 48.4 µM	0.743 µM	> 100 µM	0.488 µM	> 100 µM	0.564 µM	> 89.7 µM	0.359 µM	3.41 µM	0.574 µM	> 39.7 µM	0.972 µM	> 26.1 µM
CCc1cccc(C)c1NC(=O)c1sc2nc3c(cc2c1N)C(=O)CCC3	2.21 µM	> 91.7 µM	1.42 µM	> 100 µM	2.62 µM	> 69.6 µM	2.57 µM	> 100 µM	0.43 µM	25.8 µM	0.742 µM	> 100 µM	2.74 µM	> 100 µM	0.327 µM	–	0.564 µM	> 100 µM	0.527 µM	> 100 µM
CSc1nc2sc3c(c2c(=O)n1-c1ccc(C(C)C)cc1)CCC(=O)C3	2.12 µM	4.49 µM	2.47 µM	6.3 µM	2.64 µM	6.71 µM	2.96 µM	9.64 µM	2.82 µM	7.6 µM	1.77 µM	3.27 µM	2.71 µM	6.58 µM	2.72 µM	7.57 µM	1.94 µM	3.73 µM	2.22 µM	5.21 µM
O=C(CCCCCCN1CC(=O)N2[C@@H](c3ccc(Cl)c(Cl)c3)c3[nH]c4ccccc4c3C[C@H]2C1=O)NO	2.82 µM	17.9 µM	3.47 µM	9.31 µM	1.12 µM	17.3 µM	3.52 µM	15.6 µM	4.22 µM	14.5 µM	–	–	3.86 µM	13.4 µM	1.11 µM	4.32 µM	1.47 µM	6.92 µM	0.832 µM	7 µM
COc1cc(/C=C/C(=O)c2cccc(-n3cc(-c4ccc(Cl)cc4)[nH]c3=O)c2)cc(OC)c1OC	3.85 µM	> 100 µM	13.8 µM	48.6 µM	5.24 µM	> 100 µM	5.96 µM	> 100 µM	4.36 µM	18.3 µM	1.72 µM	3.2 µM	3.11 µM	10.2 µM	15.7 µM	> 100 µM	1.39 µM	2.68 µM	20.5 µM	> 100 µM
N#CCN1CCn2c1nsc2=S	> 100 µM	> 100 µM	> 100 µM	> 100 µM	5.1 µM	> 100 µM	> 100 µM	> 100 µM	> 100 µM	> 100 µM	> 100 µM	> 100 µM	–	–	20.2 µM	> 100 µM	> 100 µM	> 100 µM	> 100 µM	> 100 µM
COc1ccc(NC(=O)C2CCC(CNS(=O)(=O)c3ccccc3)CC2)cc1OC (stereo unspecified)	> 100 µM	> 100 µM	35.3 µM	> 100 µM	> 100 µM	> 100 µM	76.5 µM	> 100 µM	> 100 µM	> 100 µM	> 100 µM	> 100 µM	> 100 µM	> 100 µM	> 100 µM	> 100 µM	> 100 µM	> 100 µM	–	–
Nc1nc(Nc2ccccc2SSc2ccccc2Nc2nc(N)nc(C(Cl)(Cl)Cl)n2)nc(C(Cl)(Cl)Cl)n1	5.38 µM	24.7 µM	3.13 µM	10.7 µM	3.22 µM	18.1 µM	5.44 µM	> 100 µM	9.13 µM	22.9 µM	1.68 µM	3.13 µM	4.75 µM	18.7 µM	2.55 µM	12.1 µM	4.82 µM	16.9 µM	2.94 µM	22.3 µM
Cn1cc(C2=C(c3cccc(OC[C@@H](O)CO)c3)C(=O)NC2=O)c2ccccc21	> 25 µM	> 25 µM	> 25 µM	> 25 µM	16.1 µM	> 25 µM	1.39 µM	> 25 µM	> 25 µM	> 25 µM	14.8 µM	> 25 µM	> 25 µM	> 25 µM	> 25 µM	> 25 µM	> 15.8 µM	> 25 µM	0.0944 µM	> 25 µM
CCCCCO/N=C\c1c2c(O)c3c(O)c(C)c4c(c3c1O)C(=O)C(C)(O/C=C\C(OC)C(C)C(OC(C)=O)C(C)C(O)C(C)C(O)C(C)/C=C\C=C(\C)C(=O)N2)O4 (stereo unspecified)	–	–	1.75 µM	3.2 µM	2.8 µM	9.1 µM	1.69 µM	4.2 µM	1.62 µM	3.01 µM	1.65 µM	3.01 µM	1.94 µM	4.12 µM	2.92 µM	6.34 µM	1.65 µM	3.01 µM	1.46 µM	2.87 µM
COc1ccc(/C=C(\C#N)n2nnc3c(F)cccc32)cc1	0.532 µM	> 34.5 µM	0.551 µM	3.68 µM	0.456 µM	> 100 µM	0.309 µM	1.98 µM	0.245 µM	1.57 µM	0.493 µM	16.6 µM	0.84 µM	14 µM	0.229 µM	0.82 µM	0.363 µM	> 31.6 µM	0.17 µM	0.517 µM
Cc1cc[n+]2c(c1)-c1cc(C)cc[n+]1CC2	–	> 100 µM	–	> 100 µM	–	> 100 µM	–	> 100 µM	–	> 100 µM	–	> 100 µM	–	> 100 µM	–	> 100 µM	–	> 100 µM	–	> 100 µM
O=C(O)c1cccc(C(=O)O)c1S(=O)Cc1ccccc1 (stereo unspecified)	–	> 100 µM	–	> 100 µM	–	–	–	> 100 µM	–	> 100 µM	–	> 100 µM	–	> 100 µM	–	> 100 µM	–	> 100 µM	–	> 100 µM
COC(=O)[C@H]1CCCN1C(=O)[C@H]1CCCN1C(=O)[C@@H](Cc1c[nH]c2ccccc12)NC(=S)Nc1cc(C(F)(F)F)cc(C(F)(F)F)c1	1.98 µM	3.94 µM	1.68 µM	3.09 µM	2.38 µM	7.6 µM	2.03 µM	5.17 µM	2.04 µM	4.19 µM	1.65 µM	3.05 µM	1.78 µM	3.54 µM	2.38 µM	6.03 µM	1.95 µM	3.77 µM	1.52 µM	5.82 µM
C[C@]12CC[C@@H]3c4cc(OC(F)F)c(OS(N)(=O)=O)cc4CC[C@H]3[C@@H]1CC[C@@H]2O	0.848 µM	60.7 µM	1.62 µM	15.5 µM	0.641 µM	> 64.4 µM	0.366 µM	30.2 µM	0.343 µM	14.6 µM	0.428 µM	15.3 µM	1.77 µM	> 62.8 µM	0.338 µM	2.49 µM	0.434 µM	15 µM	0.193 µM	0.665 µM
CC1OC(OC2C(O)CC(OC3C(O)CC(OC4CCC5(C)C(CCC6C5CC(O)C5(C)C(C7=CC(=O)OC7)CCC65O)C4)OC3C)OC2C)CC(O)C1O (stereo unspecified)	0.0566 µM	0.196 µM	0.205 µM	0.616 µM	0.0252 µM	0.0619 µM	0.042 µM	2.3 µM	0.176 µM	0.349 µM	0.0428 µM	0.164 µM	0.137 µM	0.295 µM	0.0253 µM	0.0564 µM	0.0331 µM	0.115 µM	0.0765 µM	0.241 µM
Oc1c(I)cc(I)c2cccnc12	3.35 µM	47.1 µM	6.99 µM	46.7 µM	7.53 µM	> 100 µM	7.24 µM	> 100 µM	5.27 µM	23.7 µM	5.13 µM	89.2 µM	3.57 µM	24.6 µM	6.82 µM	> 100 µM	3.09 µM	13.5 µM	15.3 µM	> 100 µM
O=C1c2sccc2-c2cccc3cccc1c23 (tested in a mixture with another compound)	–	36.4 µM	–	54.3 µM	–	5.2 µM	–	6.72 µM	–	> 100 µM	–	18.2 µM	–	25.5 µM	–	46.1 µM	–	> 100 µM	–	37.3 µM
COc1cc2nc(-c3cc(F)ccc3O)nc(N[C@@H]3CNC[C@H]3C(C)(C)O)c2cc1OC	1.63 µM	3.07 µM	1.23 µM	2.8 µM	2.09 µM	4.7 µM	1.72 µM	5.74 µM	1.87 µM	3.47 µM	1.46 µM	2.87 µM	1.5 µM	3.67 µM	1.78 µM	4.2 µM	1.35 µM	2.75 µM	0.42 µM	2.71 µM
CC1=C(CC(=O)c2cccc([N+](=O)[O-])c2)C(=O)c2ccccc2C1=O	5.87 µM	48.9 µM	1.89 µM	12.7 µM	3.27 µM	14.1 µM	4.74 µM	48.6 µM	6.66 µM	22.3 µM	2.22 µM	8.31 µM	6.98 µM	20.5 µM	2.88 µM	7.8 µM	3.01 µM	10.6 µM	2.22 µM	10.2 µM
COC1C(O)C(CO)OC(OC2C(O)COC(OC3C(C)OC(OC4C(O[C@H]5CC[C@@]6(C)C(CC=C7[C@H]6CCC68C(=O)O[C@@](C)(CCCC(C)C)[C@H]6[C@@H](OC(C)=O)C[C@@]78C)C5(C)C)OCC(OS(=O)(=O)O)C4O)C(OC4OCC(O)C(O)C4O)C3O)C2O)C1O (stereo partly specified)	0.165 µM	0.43 µM	0.103 µM	0.325 µM	0.153 µM	0.368 µM	0.245 µM	0.598 µM	0.258 µM	0.894 µM	0.164 µM	0.357 µM	0.241 µM	0.564 µM	–	–	0.0886 µM	0.229 µM	0.214 µM	0.465 µM
